Test results published in patent EP4745135A1 (Gluetacs Therapeutics (Shanghai) Co., Ltd., priority 2023, dated 2025).

Experiments:
CK1α = target: T1, CK1α (Homo sapiens, UniProt P48729+Q96SW2); test: Western blot, degradation of substrate protein in hPBMCs; type: cell-based
T1 construct: effects of the compounds of the present disclosure on the expression of target proteins in cells; endogenous in cells; host or cells: human PBMCs (Milecell Biotechnologies)

IKZF1 = target: T2, IKZF1 (Homo sapiens, UniProt Q13422+Q96SW2); test: as above; type: cell-based
T2 construct: effects of the compounds of the present disclosure on the expression of target proteins in cells; endogenous in cells; host or cells: human PBMCs (Milecell Biotechnologies)

IKZF2 = target: T3, IKZF2 (Homo sapiens, UniProt Q96SW2+Q9UKS7); test: as above; type: cell-based
T3 construct: effects of the compounds of the present disclosure on the expression of target proteins in cells; endogenous in cells; host or cells: human PBMCs (Milecell Biotechnologies)

IKZF3 = target: T4, IKZF3 (Homo sapiens, UniProt Q96SW2+Q9UKT9); test: as above; type: cell-based
T4 construct: effects of the compounds of the present disclosure on the expression of target proteins in cells; endogenous in cells; host or cells: human PBMCs (Milecell Biotechnologies)

WEE1 = target: T5, WEE1 (Homo sapiens, UniProt P30291+Q96SW2); test: as above; type: cell-based
T5 construct: effects of the compounds of the present disclosure on the expression of target proteins in cells; endogenous in cells; host or cells: human PBMCs (Milecell Biotechnologies)

GSPT1 = test: as above; type: cell-based, Human
[1] = target: T6, human Cereblon WT GST-tagged protein (Homo sapiens, UniProt Q96SW2); test: CRBN-binding affinity, HTRF (CEREBLON BINDING kit); details: for inhibition at 0.5 µM: read-out: Inhibition Rate at 0.5 µM (%); for inhibition at 2 µM: read-out: Inhibition Rate at 2 µM (%)
T6 construct: purchased CISBIO 64BDCRBNPEH

[2] = Western blot, 24 hours of compound treatment, compounds tested at 50 nM and 500 nM (concentration for the table not stated)
[3] = 24 hours treatment, compounds at 50 nM and 500 nM (concentration behind the class not stated)

T4 sequence (Q9UKT9 whole entry): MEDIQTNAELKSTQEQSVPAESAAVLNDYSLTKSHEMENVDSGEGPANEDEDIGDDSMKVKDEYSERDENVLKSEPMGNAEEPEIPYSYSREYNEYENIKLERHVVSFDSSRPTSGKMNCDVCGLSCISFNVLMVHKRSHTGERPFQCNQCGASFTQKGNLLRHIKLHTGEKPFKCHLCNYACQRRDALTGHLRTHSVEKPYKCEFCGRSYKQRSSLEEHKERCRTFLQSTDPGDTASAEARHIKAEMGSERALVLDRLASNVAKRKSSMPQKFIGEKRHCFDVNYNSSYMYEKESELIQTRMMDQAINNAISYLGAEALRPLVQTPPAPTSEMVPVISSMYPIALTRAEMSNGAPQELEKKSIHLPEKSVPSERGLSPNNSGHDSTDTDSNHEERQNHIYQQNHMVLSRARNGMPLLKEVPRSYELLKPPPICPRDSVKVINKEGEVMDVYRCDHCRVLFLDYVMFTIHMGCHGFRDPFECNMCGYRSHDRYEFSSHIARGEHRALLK
T4 sequence (Q96SW2 whole entry): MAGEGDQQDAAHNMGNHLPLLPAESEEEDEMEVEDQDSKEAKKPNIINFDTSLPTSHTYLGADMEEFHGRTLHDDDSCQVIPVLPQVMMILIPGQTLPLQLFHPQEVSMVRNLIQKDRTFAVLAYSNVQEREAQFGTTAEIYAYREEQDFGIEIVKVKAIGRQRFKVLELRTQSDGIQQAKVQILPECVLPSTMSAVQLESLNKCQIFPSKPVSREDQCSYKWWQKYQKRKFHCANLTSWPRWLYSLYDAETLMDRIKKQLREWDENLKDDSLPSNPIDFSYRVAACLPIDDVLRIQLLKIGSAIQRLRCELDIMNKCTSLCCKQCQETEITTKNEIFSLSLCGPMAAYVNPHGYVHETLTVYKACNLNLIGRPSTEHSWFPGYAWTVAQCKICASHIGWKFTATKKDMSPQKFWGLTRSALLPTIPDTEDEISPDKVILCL
T4 sequence (Q16531 whole entry partner): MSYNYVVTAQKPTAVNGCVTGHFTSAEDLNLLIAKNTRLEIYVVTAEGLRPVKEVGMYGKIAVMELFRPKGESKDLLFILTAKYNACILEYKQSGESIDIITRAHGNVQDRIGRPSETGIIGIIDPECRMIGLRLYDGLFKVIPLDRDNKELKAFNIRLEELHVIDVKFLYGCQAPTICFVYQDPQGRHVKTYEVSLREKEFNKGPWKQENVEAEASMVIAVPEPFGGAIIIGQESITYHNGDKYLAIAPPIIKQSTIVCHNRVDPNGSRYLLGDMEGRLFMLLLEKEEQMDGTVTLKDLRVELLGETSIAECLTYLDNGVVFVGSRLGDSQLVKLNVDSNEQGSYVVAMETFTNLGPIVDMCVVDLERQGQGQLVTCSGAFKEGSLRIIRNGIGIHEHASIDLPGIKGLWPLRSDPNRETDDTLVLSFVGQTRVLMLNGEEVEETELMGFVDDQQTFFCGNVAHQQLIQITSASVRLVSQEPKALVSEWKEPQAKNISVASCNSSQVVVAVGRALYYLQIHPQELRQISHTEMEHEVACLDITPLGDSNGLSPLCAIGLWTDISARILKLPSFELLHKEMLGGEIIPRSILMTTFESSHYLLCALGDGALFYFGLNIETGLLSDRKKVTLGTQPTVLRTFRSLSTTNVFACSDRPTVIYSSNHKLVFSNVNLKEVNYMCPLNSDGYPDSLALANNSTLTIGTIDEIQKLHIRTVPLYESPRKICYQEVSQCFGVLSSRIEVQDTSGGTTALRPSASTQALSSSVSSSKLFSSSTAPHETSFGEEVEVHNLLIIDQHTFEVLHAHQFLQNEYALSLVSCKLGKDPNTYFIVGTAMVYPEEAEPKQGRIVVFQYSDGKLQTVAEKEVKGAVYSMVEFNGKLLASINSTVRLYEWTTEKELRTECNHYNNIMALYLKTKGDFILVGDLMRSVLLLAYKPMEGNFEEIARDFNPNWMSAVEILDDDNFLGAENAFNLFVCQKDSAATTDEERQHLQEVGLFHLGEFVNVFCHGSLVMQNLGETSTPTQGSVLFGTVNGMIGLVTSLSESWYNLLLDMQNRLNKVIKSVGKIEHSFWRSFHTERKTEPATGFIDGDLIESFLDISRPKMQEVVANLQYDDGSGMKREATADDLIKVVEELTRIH
T5 sequence (P30291 whole entry): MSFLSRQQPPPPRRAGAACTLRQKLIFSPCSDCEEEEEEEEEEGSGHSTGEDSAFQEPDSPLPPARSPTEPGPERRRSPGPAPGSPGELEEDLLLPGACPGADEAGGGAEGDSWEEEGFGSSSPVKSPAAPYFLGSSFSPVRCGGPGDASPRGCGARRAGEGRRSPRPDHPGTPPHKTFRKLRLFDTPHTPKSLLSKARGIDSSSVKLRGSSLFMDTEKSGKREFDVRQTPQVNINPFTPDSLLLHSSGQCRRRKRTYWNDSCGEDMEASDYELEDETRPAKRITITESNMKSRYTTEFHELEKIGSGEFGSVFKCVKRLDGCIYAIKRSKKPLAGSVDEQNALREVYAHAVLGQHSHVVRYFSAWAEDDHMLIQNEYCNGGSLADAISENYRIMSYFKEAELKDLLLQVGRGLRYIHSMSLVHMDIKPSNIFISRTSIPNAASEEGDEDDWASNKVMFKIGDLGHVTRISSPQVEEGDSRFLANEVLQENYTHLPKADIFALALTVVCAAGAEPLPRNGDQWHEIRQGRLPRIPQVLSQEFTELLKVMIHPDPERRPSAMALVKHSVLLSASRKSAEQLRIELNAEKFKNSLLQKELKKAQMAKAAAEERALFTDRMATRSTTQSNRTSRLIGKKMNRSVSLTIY
T5 sequence (Q96SW2 whole entry): as the sequence (Q96SW2 whole entry) above
T5 sequence (Q16531 whole entry partner): as the sequence (Q16531 whole entry partner) above
T6 sequence (Q96SW2 whole entry): as the sequence (Q96SW2 whole entry) above
T3 sequence (Q9UKS7 whole entry): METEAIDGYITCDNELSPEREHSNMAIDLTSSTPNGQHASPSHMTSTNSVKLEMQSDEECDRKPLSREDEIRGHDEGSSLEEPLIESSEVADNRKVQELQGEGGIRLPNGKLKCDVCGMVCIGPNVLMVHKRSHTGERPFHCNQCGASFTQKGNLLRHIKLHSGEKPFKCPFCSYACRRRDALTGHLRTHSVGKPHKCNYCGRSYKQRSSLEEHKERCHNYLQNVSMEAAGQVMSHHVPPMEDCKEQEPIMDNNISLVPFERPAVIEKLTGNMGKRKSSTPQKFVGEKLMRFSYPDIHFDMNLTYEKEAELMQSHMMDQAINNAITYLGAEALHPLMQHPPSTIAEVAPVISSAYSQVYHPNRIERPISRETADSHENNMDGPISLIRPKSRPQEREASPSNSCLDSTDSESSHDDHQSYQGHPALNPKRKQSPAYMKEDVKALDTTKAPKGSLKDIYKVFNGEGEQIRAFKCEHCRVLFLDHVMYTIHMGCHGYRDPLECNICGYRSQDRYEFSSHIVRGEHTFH
T3 sequence (Q96SW2 whole entry): as the sequence (Q96SW2 whole entry) above
T3 sequence (Q16531 whole entry partner): as the sequence (Q16531 whole entry partner) above
T1 sequence (P48729 whole entry): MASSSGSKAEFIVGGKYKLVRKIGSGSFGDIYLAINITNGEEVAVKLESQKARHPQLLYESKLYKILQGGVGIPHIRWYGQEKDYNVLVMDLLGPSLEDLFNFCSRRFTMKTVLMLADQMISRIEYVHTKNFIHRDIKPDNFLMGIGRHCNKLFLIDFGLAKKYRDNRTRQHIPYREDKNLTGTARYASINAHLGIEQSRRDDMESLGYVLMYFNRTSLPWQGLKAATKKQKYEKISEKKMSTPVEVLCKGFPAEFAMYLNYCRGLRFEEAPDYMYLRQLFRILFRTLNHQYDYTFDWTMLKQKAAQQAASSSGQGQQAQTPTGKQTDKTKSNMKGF
T1 sequence (Q96SW2 whole entry): as the sequence (Q96SW2 whole entry) above
T1 sequence (Q16531 whole entry partner): as the sequence (Q16531 whole entry partner) above
T2 sequence (Q13422 whole entry): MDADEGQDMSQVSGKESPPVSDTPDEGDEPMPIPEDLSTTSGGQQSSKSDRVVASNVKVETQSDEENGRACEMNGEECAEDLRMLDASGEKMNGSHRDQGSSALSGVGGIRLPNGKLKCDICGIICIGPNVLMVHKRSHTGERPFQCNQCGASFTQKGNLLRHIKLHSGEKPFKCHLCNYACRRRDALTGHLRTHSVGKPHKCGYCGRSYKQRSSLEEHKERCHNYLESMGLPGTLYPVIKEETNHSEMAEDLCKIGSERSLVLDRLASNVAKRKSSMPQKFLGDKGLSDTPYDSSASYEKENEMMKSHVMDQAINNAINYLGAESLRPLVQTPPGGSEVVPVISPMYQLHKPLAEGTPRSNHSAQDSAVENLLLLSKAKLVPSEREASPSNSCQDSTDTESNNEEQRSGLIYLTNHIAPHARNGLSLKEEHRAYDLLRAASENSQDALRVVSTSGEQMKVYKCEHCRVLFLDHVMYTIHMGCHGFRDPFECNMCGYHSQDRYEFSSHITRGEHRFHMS
T2 sequence (Q96SW2 whole entry): as the sequence (Q96SW2 whole entry) above
T2 sequence (Q16531 whole entry partner): as the sequence (Q16531 whole entry partner) above

SMILES | CK1α substrate protein remaining % (CK1α; [2]) | IKZF 1 substrate protein remaining % (IKZF1; [2]) | IKZF2 substrate protein remaining % (IKZF2; [2]) | IKZF3 substrate protein remaining % (IKZF3; [2]) | Wee1 substrate protein remaining % (WEE1; [2]) | GSPT1 substrate protein remaining % (GSPT1; [2]) | inhibition at 0.5 µM [1] | inhibition at 2 µM [1] | CK1α substrate protein remaining % (CK1α; [3]) | IKZF 1 substrate protein remaining % (IKZF1; [3]) | IKZF2 substrate protein remaining % (IKZF2; [3]) | IKZF3 substrate protein remaining % (IKZF3; [3]) | Wee1 substrate protein remaining % (WEE1; [3]) | GSPT1 substrate protein remaining % (GSPT1; [3])
O=C1CCC(N2Cc3c(CN4CCN(c5cccc(Cl)n5)CC4)cccc3C2=S)C(=O)N1 (stereo not drawn) [GT-08693, 3-(4-((4-(6-chloropyridin-2-yl)piperazin-1-yl)methyl)-1-thioxoisoindolin-2-yl)piperidine-2,6-dione] | B (80%< substrate protein remaining %≤ 100%) | B (80%< substrate protein remaining %≤ 100%) | B (80%< substrate protein remaining %≤ 100%) | B (80%< substrate protein remaining %≤ 100%) | A (0% ≤ substrate protein remaining % ≤ 80%) | B (80%< substrate protein remaining %≤ 100%) | 60 to 80% | 80 to 100% |  |  |  |  |  | 
O=C1CCC(N2Cc3c(CN4C[C@H]5C[C@@H]4CN5C(c4ccccc4)c4ccccc4)cccc3C2=S)C(=O)N1 (stereo partly drawn) [GT-08208, 3-(4-(((1R,4R)-5-benzhydryl-2,5-diazabicyclo[2.2.1]heptan-2-yl)methyl)-1-thioxoisoindolin-2-yl)piperidine-2,6-dione] | B (80%< substrate protein remaining %≤ 100%) | B (80%< substrate protein remaining %≤ 100%) | A (0% ≤ substrate protein remaining % ≤ 80%) | B (80%< substrate protein remaining %≤ 100%) | A (0% ≤ substrate protein remaining % ≤ 80%) | A (0% ≤ substrate protein remaining % ≤ 80%) | 40 to 53% | 80 to 100% |  |  |  |  |  | 
O=C1CCC(N2Cc3cc(CN4CCC(c5ncc6ccsc6n5)CC4)ccc3C2=S)C(=O)N1 (stereo not drawn) [GT-09313, 3-(5-((4-(thieno[2,3-d]pyrimidin-2-yl)piperidin-1-yl)methyl)-1-thioxoisoindolin-2-yl)piperidine-2,6-dione] |  |  |  |  |  |  | 60 to 80% | 80 to 100% | B (80%< substrate protein remaining %≤ 100%) | A (0% ≤ substrate protein remaining % ≤ 80%) | B (80%< substrate protein remaining %≤ 100%) | B (80%< substrate protein remaining %≤ 100%) | B (80%< substrate protein remaining %≤ 100%) | A (0% ≤ substrate protein remaining % ≤ 80%)
O=C1CCC(N2Cc3c(CN4CCC(c5ncnc6scc(-c7ccccc7)c56)CC4)cccc3C2=S)C(=O)N1 (stereo not drawn) [GT-08930, 3-(4-((4-(5-phenylthieno[2,3-d]pyrimidin-4-yl)piperidin-1-yl)methyl)-1-thioxoisoindolin-2-yl)piperidine-2,6-dione] |  |  |  |  |  |  | 53 to 60% | 80 to 100% | B (80%< substrate protein remaining %≤ 100%) | B (80%< substrate protein remaining %≤ 100%) | B (80%< substrate protein remaining %≤ 100%) | B (80%< substrate protein remaining %≤ 100%) | A (0% ≤ substrate protein remaining % ≤ 80%) | B (80%< substrate protein remaining %≤ 100%)
O=C1CCC(N2Cc3c(CN4CCN(c5ccnc(Br)c5F)CC4)cccc3C2=S)C(=O)N1 (stereo not drawn) [GT-08733, 3-(4-((4-(2-bromo-3-fluoropyridin-4-yl)piperazin-1-yl)methyl)-1-thioxoisoindolin-2-yl)piperidine-2,6-dione] | B (80%< substrate protein remaining %≤ 100%) | B (80%< substrate protein remaining %≤ 100%) | B (80%< substrate protein remaining %≤ 100%) | B (80%< substrate protein remaining %≤ 100%) | A (0% ≤ substrate protein remaining % ≤ 80%) | A (0% ≤ substrate protein remaining % ≤ 80%) | 60 to 80% | 80 to 100% |  |  |  |  |  | 
Cc1cscc1C1=CCN(Cc2cccc3c2CN(C2CCC(=O)NC2=O)C3=S)CC1 (stereo not drawn) [GT-08308, 3-(4-((4-(4-methylthiophen-3-yl)-3,6-dihydropyridin-1(2H)-yl)methyl)-1-thioxoisoindolin-2-yl)piperidine-2,6-dione] |  |  |  |  |  |  | 53 to 60% | 60 to 80% | B (80%< substrate protein remaining %≤ 100%) | B (80%< substrate protein remaining %≤ 100%) | B (80%< substrate protein remaining %≤ 100%) | B (80%< substrate protein remaining %≤ 100%) | A (0% ≤ substrate protein remaining % ≤ 80%) | B (80%< substrate protein remaining %≤ 100%)
O=C1CCC(N2Cc3cc(CN4CCN(c5cc(F)ccc5F)CC4)ccc3C2=S)C(=O)N1 (stereo not drawn) [GT-08625, 3-(5-((4-(2,5-difluorophenyl)piperazin-1-yl)methyl)-1-thioxoisoindolin-2-yl)piperidine-2,6-dione] | A (0% ≤ substrate protein remaining % ≤ 80%) | B (80%< substrate protein remaining %≤ 100%) | B (80%< substrate protein remaining %≤ 100%) | B (80%< substrate protein remaining %≤ 100%) | B (80%< substrate protein remaining %≤ 100%) | A (0% ≤ substrate protein remaining % ≤ 80%) | 60 to 80% | 80 to 100% |  |  |  |  |  | 
O=C1CCC(N2Cc3c(CN4CCN(c5nc(Cl)nc6c5SCC6)CC4)cccc3C2=S)C(=O)N1 (stereo not drawn) [GT-08966, 3-(4-((4-(2-chloro-6,7-dihydrothieno[3,2-d]pyrimidin-4-yl)piperazin-1-yl)methyl)-1-thioxoisoindolin-2-yl)piperidine-2,6-dione] |  |  |  |  |  |  | 80 to 100% | 80 to 100% | B (80%< substrate protein remaining %≤ 100%) | B (80%< substrate protein remaining %≤ 100%) | B (80%< substrate protein remaining %≤ 100%) | B (80%< substrate protein remaining %≤ 100%) | B (80%< substrate protein remaining %≤ 100%) | A (0% ≤ substrate protein remaining % ≤ 80%)
CC1(C)CC(c2ccc(Cl)cc2)=C(CN2CCN(Cc3ccc4c(c3)CN(C3CCC(=O)NC3=O)C4=S)CC2)CO1 (stereo not drawn) [GT-08167, 3-(5-((4-((4-(4-chlorophenyl)-6,6-dimethyl-5,6-dihydro-2H-pyran-3-yl)methyl)piperazin-1-yl)methyl)-1-thioxoisoindolin-2-yl)piperidine-2,6-dione] |  |  |  |  |  |  | 40 to 53% | 80 to 100% | B (80%< substrate protein remaining %≤ 100%) | B (80%< substrate protein remaining %≤ 100%) | A (0% ≤ substrate protein remaining % ≤ 80%) | A (0% ≤ substrate protein remaining % ≤ 80%) | A (0% ≤ substrate protein remaining % ≤ 80%) | A (0% ≤ substrate protein remaining % ≤ 80%)
O=C1CCC(N2Cc3c(CN4CCCN(c5cccc(Cl)c5Cl)CC4)cccc3C2=S)C(=O)N1 (stereo not drawn) [GT-08472, 3-(4-((4-(2,3-dichlorophenyl)-1,4-diazepan-1-yl)methyl)-1-thioxoisoindolin-2-yl)piperidine-2,6-dione] | B (80%< substrate protein remaining %≤ 100%) | B (80%< substrate protein remaining %≤ 100%) | B (80%< substrate protein remaining %≤ 100%) | B (80%< substrate protein remaining %≤ 100%) | B (80%< substrate protein remaining %≤ 100%) | A (0% ≤ substrate protein remaining % ≤ 80%) | 40 to 53% | 80 to 100% |  |  |  |  |  | 
O=C1CCC(N2Cc3c(CN4CCC(c5ncnc6sc(-c7ccccc7)cc56)CC4)cccc3C2=S)C(=O)N1 (stereo not drawn) [GT-08929, 3-(4-((4-(6-phenylthieno[2,3-d]pyrimidin-4-yl)piperidin-1-yl)methyl)-1-thioxoisoindolin-2-yl)piperidine-2,6-dione] |  |  |  |  |  |  | 30 to 40% | 60 to 80% | B (80%< substrate protein remaining %≤ 100%) | B (80%< substrate protein remaining %≤ 100%) | B (80%< substrate protein remaining %≤ 100%) | B (80%< substrate protein remaining %≤ 100%) | A (0% ≤ substrate protein remaining % ≤ 80%) | B (80%< substrate protein remaining %≤ 100%)
O=C1CCC(N2Cc3c(CN4CCN(c5c(Cl)cncc5Cl)CC4)cccc3C2=S)C(=O)N1 (stereo not drawn) [GT-08805, 3-(4-((4-(3,5-dichloropyridin-4-yl)piperazin-1-yl)methyl)-1-thioxoisoindolin-2-yl)piperidine-2,6-dione] | B (80%< substrate protein remaining %≤ 100%) | B (80%< substrate protein remaining %≤ 100%) | B (80%< substrate protein remaining %≤ 100%) | B (80%< substrate protein remaining %≤ 100%) | A (0% ≤ substrate protein remaining % ≤ 80%) | B (80%< substrate protein remaining %≤ 100%) | 60 to 80% | 60 to 80% |  |  |  |  |  | 
